Source: patent publication US20110218103A1, “Fluoroalkyl-substituted 2-amidobenzimidazoles” (BAYER CROPSCIENCE AG, priority 2010, published 2011)

Columns and labels:
Assay in all cases: Drought stress test on crop plants, spray application in greenhouse, visual damage rating
Type in all cases: in vivo
[1] = test system: Triticum aestivum (TRZAS); conditions: mean of three results
Procedure: Seeds of monocotyledonous and dicotyledonous crop plants were placed in sandy loam in wood-fiber pots, covered with soil and cultivated in a greenhouse under good growth conditions. The test plants were treated at the early leaf stage (BBCH10-BBCH13). To ensure uniform water supply before commencement of stress, the potted plants were supplied with the maximum amount of water immediately beforehand by dam irrigation and, after application, transferred in plastic inserts in order to prevent subsequent, excessively rapid drying. The inventive compounds, formulated in the form of wettable powders (WP), wettable granules (WG), suspension concentrates (SC) or emulsion concentrates (EC), were sprayed onto the green parts of the plants as an aqueous suspension at an equivalent water application rate of 600 l/ha with addition of 0.2% wetting agent (agrotin). Substance application was followed immediately by stress treatment of the plants (cold or drought stress). For cold stress treatment, the plants were kept under the following controlled conditions: Drought stress was induced by gradual drying out under the following conditions: “day”: 14 hours with illumination at 26° C. “night”: 10 hours without illumination at 18° C. The duration of the respective stress phases was guided mainly by the state of the untreated, stressed control plants and thus varies from crop to crop. It was ended (by re-irrigating or transfer to a greenhouse with good growth conditions) as soon as irreversible damage is observed on the untreated, stressed control plants. In the case of dicotyledonous crops, for example oilseed rape and soya, the duration of the drought stress phase was between 3 and 5 days, in the case of monocotyledonous crops, for example wheat, barley or corn, between 6 and 10 days. The duration of the cold stress phase varied between 12 and 14 days. The end of the stress phase was followed by an approx. 5-7-day recovery phase, during which the plants were once again kept under good growth conditions in a greenhouse. In order to rule out any influence of the effects observed by any fungicidal action of the test compounds, it was additionally ensured that the tests proceed without fungal infection and without infection pressure. After the recovery phase had ended, the intensities of damage were rated visually compared to untreated, unstressed controls of the same age (in the case of drought stress) or the same growth stage (in the case of cold stress). The intensity of damage was first assessed as a percentage (100%=plants have died, 0%=like control plants). These values were then used to calculate the efficacy of the test compounds (=percentage reduction in the intensity of damage as a result of substance application) by the following formula: [formula] EF: efficacy (%) DVus: damage value of the untreated, stressed control DVts: damage value of the plants treated with test compound The tables below list mean values in each case from three results of the same test. Effects of selected compounds of the formula (I) under drought stress: TRZAS=Triticum aestivum

Hordeum vulgare (HORVS) = conditions: mean of three results
Procedure: Seeds of monocotyledonous and dicotyledonous crop plants were placed in sandy loam in wood-fiber pots, covered with soil and cultivated in a greenhouse under good growth conditions. The test plants were treated at the early leaf stage (BBCH10-BBCH13). To ensure uniform water supply before commencement of stress, the potted plants were supplied with the maximum amount of water immediately beforehand by dam irrigation and, after application, transferred in plastic inserts in order to prevent subsequent, excessively rapid drying. The inventive compounds, formulated in the form of wettable powders (WP), wettable granules (WG), suspension concentrates (SC) or emulsion concentrates (EC), were sprayed onto the green parts of the plants as an aqueous suspension at an equivalent water application rate of 600 l/ha with addition of 0.2% wetting agent (agrotin). Substance application was followed immediately by stress treatment of the plants (cold or drought stress). For cold stress treatment, the plants were kept under the following controlled conditions: Drought stress was induced by gradual drying out under the following conditions: “day”: 14 hours with illumination at 26° C. “night”: 10 hours without illumination at 18° C. The duration of the respective stress phases was guided mainly by the state of the untreated, stressed control plants and thus varies from crop to crop. It was ended (by re-irrigating or transfer to a greenhouse with good growth conditions) as soon as irreversible damage is observed on the untreated, stressed control plants. In the case of dicotyledonous crops, for example oilseed rape and soya, the duration of the drought stress phase was between 3 and 5 days, in the case of monocotyledonous crops, for example wheat, barley or corn, between 6 and 10 days. The duration of the cold stress phase varied between 12 and 14 days. The end of the stress phase was followed by an approx. 5-7-day recovery phase, during which the plants were once again kept under good growth conditions in a greenhouse. In order to rule out any influence of the effects observed by any fungicidal action of the test compounds, it was additionally ensured that the tests proceed without fungal infection and without infection pressure. After the recovery phase had ended, the intensities of damage were rated visually compared to untreated, unstressed controls of the same age (in the case of drought stress) or the same growth stage (in the case of cold stress). The intensity of damage was first assessed as a percentage (100%=plants have died, 0%=like control plants). These values were then used to calculate the efficacy of the test compounds (=percentage reduction in the intensity of damage as a result of substance application) by the following formula: [formula] EF: efficacy (%) DVus: damage value of the untreated, stressed control DVts: damage value of the plants treated with test compound The tables below list mean values in each case from three results of the same test. Effects of selected compounds of the formula (I) under drought stress: HORVS=Hordeum vulgare

Brassica napus (BRSNS) = conditions: 25 g/ha, mean of three results
Procedure: Seeds of monocotyledonous and dicotyledonous crop plants were placed in sandy loam in wood-fiber pots, covered with soil and cultivated in a greenhouse under good growth conditions. The test plants were treated at the early leaf stage (BBCH10-BBCH13). To ensure uniform water supply before commencement of stress, the potted plants were supplied with the maximum amount of water immediately beforehand by dam irrigation and, after application, transferred in plastic inserts in order to prevent subsequent, excessively rapid drying. The inventive compounds, formulated in the form of wettable powders (WP), wettable granules (WG), suspension concentrates (SC) or emulsion concentrates (EC), were sprayed onto the green parts of the plants as an aqueous suspension at an equivalent water application rate of 600 l/ha with addition of 0.2% wetting agent (agrotin). Substance application was followed immediately by stress treatment of the plants (cold or drought stress). For cold stress treatment, the plants were kept under the following controlled conditions: Drought stress was induced by gradual drying out under the following conditions: “day”: 14 hours with illumination at 26° C. “night”: 10 hours without illumination at 18° C. The duration of the respective stress phases was guided mainly by the state of the untreated, stressed control plants and thus varies from crop to crop. It was ended (by re-irrigating or transfer to a greenhouse with good growth conditions) as soon as irreversible damage is observed on the untreated, stressed control plants. In the case of dicotyledonous crops, for example oilseed rape and soya, the duration of the drought stress phase was between 3 and 5 days, in the case of monocotyledonous crops, for example wheat, barley or corn, between 6 and 10 days. The duration of the cold stress phase varied between 12 and 14 days. The end of the stress phase was followed by an approx. 5-7-day recovery phase, during which the plants were once again kept under good growth conditions in a greenhouse. In order to rule out any influence of the effects observed by any fungicidal action of the test compounds, it was additionally ensured that the tests proceed without fungal infection and without infection pressure. After the recovery phase had ended, the intensities of damage were rated visually compared to untreated, unstressed controls of the same age (in the case of drought stress) or the same growth stage (in the case of cold stress). The intensity of damage was first assessed as a percentage (100%=plants have died, 0%=like control plants). These values were then used to calculate the efficacy of the test compounds (=percentage reduction in the intensity of damage as a result of substance application) by the following formula: [formula] EF: efficacy (%) DVus: damage value of the untreated, stressed control DVts: damage value of the plants treated with test compound The tables below list mean values in each case from three results of the same test. Effects of selected compounds of the formula (I) under drought stress: BRSNS=Brassica napus

Zea mays (ZEAMX) = conditions: mean of three results
Procedure: Seeds of monocotyledonous and dicotyledonous crop plants were placed in sandy loam in wood-fiber pots, covered with soil and cultivated in a greenhouse under good growth conditions. The test plants were treated at the early leaf stage (BBCH10-BBCH13). To ensure uniform water supply before commencement of stress, the potted plants were supplied with the maximum amount of water immediately beforehand by dam irrigation and, after application, transferred in plastic inserts in order to prevent subsequent, excessively rapid drying. The inventive compounds, formulated in the form of wettable powders (WP), wettable granules (WG), suspension concentrates (SC) or emulsion concentrates (EC), were sprayed onto the green parts of the plants as an aqueous suspension at an equivalent water application rate of 600 l/ha with addition of 0.2% wetting agent (agrotin). Substance application was followed immediately by stress treatment of the plants (cold or drought stress). For cold stress treatment, the plants were kept under the following controlled conditions: Drought stress was induced by gradual drying out under the following conditions: “day”: 14 hours with illumination at 26° C. “night”: 10 hours without illumination at 18° C. The duration of the respective stress phases was guided mainly by the state of the untreated, stressed control plants and thus varies from crop to crop. It was ended (by re-irrigating or transfer to a greenhouse with good growth conditions) as soon as irreversible damage is observed on the untreated, stressed control plants. In the case of dicotyledonous crops, for example oilseed rape and soya, the duration of the drought stress phase was between 3 and 5 days, in the case of monocotyledonous crops, for example wheat, barley or corn, between 6 and 10 days. The duration of the cold stress phase varied between 12 and 14 days. The end of the stress phase was followed by an approx. 5-7-day recovery phase, during which the plants were once again kept under good growth conditions in a greenhouse. In order to rule out any influence of the effects observed by any fungicidal action of the test compounds, it was additionally ensured that the tests proceed without fungal infection and without infection pressure. After the recovery phase had ended, the intensities of damage were rated visually compared to untreated, unstressed controls of the same age (in the case of drought stress) or the same growth stage (in the case of cold stress). The intensity of damage was first assessed as a percentage (100%=plants have died, 0%=like control plants). These values were then used to calculate the efficacy of the test compounds (=percentage reduction in the intensity of damage as a result of substance application) by the following formula: [formula] EF: efficacy (%) DVus: damage value of the untreated, stressed control DVts: damage value of the plants treated with test compound The tables below list mean values in each case from three results of the same test. Effects of selected compounds of the formula (I) under drought stress: ZEAMX=Zea mays

| SMILES | EF (TRZAS), efficacy = percentage reduction in the intensity of damage ([1]; 25 g/ha) | EF (BRSNS), efficacy = percentage reduction in the intensity of damage (Brassica napus (BRSNS)) | EF (TRZAS), efficacy = percentage reduction in the intensity of damage ([1]; 250 g/ha) | also measured |
| --- | --- | --- | --- | --- |
| Cc1cc(C(N)=O)c2nc(C(F)F)[nH]c2c1 [4-7] | >5% | >5% |  | EF (HORVS), efficacy = percentage reduction in the intensity of damage (Hordeum vulgare (HORVS); 25 g/ha): >5% |
| Cn1c(C(F)(F)F)nc2c(C(N)=O)cccc21 [1-27] |  |  |  | EF (HORVS), efficacy = percentage reduction in the intensity of damage (Hordeum vulgare (HORVS); 100 g/ha): >5% |
| CCCCOC(F)(F)c1nc2c(C(N)=O)cccc2[nH]1 [1-50] |  | >5% | >5% | EF (ZEAMX), efficacy = percentage reduction in the intensity of damage (Zea mays (ZEAMX); 250 g/ha): >5% |
| COCCOC(F)(F)c1nc2c(C(N)=O)cccc2[nH]1 [1-52] | >5% | >5% |  | EF (ZEAMX), efficacy = percentage reduction in the intensity of damage (Zea mays (ZEAMX); 25 g/ha): >5% |
| NC(=O)c1cccc2[nH]c(C(F)(F)Cl)nc12 [1-1, 2-[chloro(difluoro)methyl]-1H-benzimidazole-4-carboxamide] |  |  |  | EF (HORVS), efficacy = percentage reduction in the intensity of damage (Hordeum vulgare (HORVS); 100 g/ha): >5% |
| COC(F)(F)c1nc2c(C(N)=O)cccc2[nH]1 [1-6, 2-[difluoro(methoxy)methyl]-1H-benzimidazole-4-carboxamide] | >5% | >5% |  | EF (ZEAMX), efficacy = percentage reduction in the intensity of damage (Zea mays (ZEAMX); 25 g/ha): >5% |
| CCC(C)COC(F)(F)c1nc2c(C(N)=O)cccc2[nH]1 (stereo not shown) [1-90] |  |  | >5% | EF (ZEAMX), efficacy = percentage reduction in the intensity of damage (Zea mays (ZEAMX); 250 g/ha): >5% |
| CCCCS(CCCC)=NC(=O)c1cccc2[nH]c(C(F)(F)F)nc12 [1-5, N-(dibutyl-lambda^4-sulfanylidene)-2-(trifluoromethyl)-1H-benzimidazole-4-carboxamide] |  | >5% | >5% | EF (ZEAMX), efficacy = percentage reduction in the intensity of damage (Zea mays (ZEAMX); 50 g/ha): >5% |
